Measurements as given in PubChem BioAssay (NCI).
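GI50 = concentration required for 50% inhibition of growth. The concentration for full growth arrest is given as TGI.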

Experiments:
Test in all cases: growth of human tumour cells (NCI), 384-well format
[1] = test system: SK-MEL-2 melanoma
[2] = test system: HCC-2998 colon
[3] = test system: CCRF-CEM leukemia
[4] = test system: NCI/ADR-RES ovarian
[5] = test system: SR leukemia
[6] = test system: OVCAR-3 ovarian
[7] = test system: NCI-H23 lung
[8] = test system: NCI-H322M lung
[9] = test system: TK-10 renal
[10] = test system: RXF 393 renal
[11] = test system: SF-539 CNS
[12] = test system: M14 melanoma
[13] = test system: MCF7 breast
[14] = test system: MOLT-4 leukemia
[15] = test system: NCI-H460 NSCLC
[16] = test system: MALME-3M melanoma
[17] = test system: UACC-257 melanoma
[18] = test system: SNB-19 CNS
[19] = test system: BT-549 breast
[20] = test system: U251 glioblastoma
[21] = test system: T-47D breast
[22] = test system: HOP-62 NSCLC
[23] = test system: K-562 leukemia
[24] = test system: NCI-H226 lung
[25] = test system: HCT-15 colon
[26] = test system: SNB-75 CNS
[27] = test system: HS 578T breast
[28] = test system: ACHN renal
[29] = test system: HCT-116 colon
[30] = test system: MDA-MB-435 melanoma
[31] = test system: CAKI-1 renal
[32] = test system: SN12C renal
[33] = test system: SK-MEL-28 melanoma
[34] = test system: EKVX NSCLC
[35] = test system: SW-620 colon
[36] = test system: MDA-MB-231 breast
[37] = test system: UO-31 renal
[38] = test system: SK-OV-3 ovarian
[39] = test system: NCI-H522 lung
[40] = test system: OVCAR-8 ovarian
[41] = test system: A549 NSCLC
[42] = test system: 786-0 renal
[43] = test system: SF-268 CNS
[44] = test system: COLO 205 colon
[45] = test system: HT29 colon
[46] = test system: UACC-62 melanoma
[47] = test system: HOP-92 NSCLC
[48] = test system: SF-295 CNS
[49] = test system: OVCAR-4 ovarian
[50] = test system: IGROV1 ovarian
[51] = test system: LOX IMVI melanoma
[52] = test system: MDA-MB-468 breast
[53] = test system: PC-3 prostate
[54] = test system: RPMI-8226 leukemia
[55] = test system: A498 renal
[56] = test system: DU-145 prostate
[57] = test system: HL-60(TB) leukemia
[58] = test system: OVCAR-5 ovarian
[59] = test system: KM12 colon
[60] = test system: SK-MEL-5 melanoma

CO[C@H]1C[C@@H]2CC[C@@H](C)[C@@](O)(O2)C(=O)C(=O)N2CCCC[C@H]2C(=O)O[C@H]([C@H](C)C[C@@H]2CC[C@@H](O)[C@H](OC)C2)CC(=O)[C@H](C)C=C(C)[C@@H](O)[C@@H](OC)C(=O)[C@H](C)C[C@H](C)/C=C/C=C/C=C1C gave a GI50 [1] of 11.2 µM, a TGI [1] of 27.9 µM and a GI50 [2] of 4.72 µM. For the same compound, the TGI [2] was 18.6 µM, the TGI [3] was 7.12 µM and the GI50 [4] was 14.9 µM. The TGI [4] was 34.2 µM, the TGI [5] was 1.89 µM and the GI50 [6] was 10.9 µM. For the same compound, the TGI [6] was 24.2 µM, the GI50 [7] was 12 µM and the TGI [7] was 24.8 µM. For the same compound, the GI50 [8] was 12.7 µM, the TGI [8] was 25.8 µM and the GI50 [9] was 0.518 µM. For the same compound, the TGI [9] was 27.5 µM, the GI50 [10] was 12.5 µM and the TGI [10] was 25.2 µM. For the same compound, the GI50 [11] was 2.53 µM, the TGI [11] was 19.6 µM and the GI50 [12] was 11 µM. The TGI [12] was 23.7 µM, the TGI [13] was 15.4 µM and the TGI [14] was 4.88 µM. The TGI [15] was 16.8 µM, the TGI [16] was 20.6 µM and the GI50 [17] was 16 µM. It also gave a TGI [17] of 29.6 µM, a GI50 [18] of 6.46 µM and a TGI [18] of 23.2 µM. It also gave a GI50 [19] of 3.98 µM, a TGI [19] of 18.7 µM and a GI50 [20] of 3.94 µM. For the same compound, the TGI [20] was 20.3 µM, the GI50 [21] was 1.33 µM and the TGI [21] was 36.6 µM. For the same compound, the TGI [22] was 20.2 µM, the GI50 [23] was 4.35 µM and the TGI [23] was 18.4 µM. It also gave a GI50 [24] of 10.3 µM, a TGI [24] of 23.5 µM and a GI50 [25] of 3.92 µM. For the same compound, the TGI [25] was 19.7 µM, the GI50 [26] was 13 µM and the TGI [26] was 25.8 µM. For the same compound, the TGI [27] was 9.94 µM, the GI50 [28] was 1.61 µM and the TGI [28] was 23.4 µM. The GI50 [29] was 8.71 µM, the TGI [29] was 24.2 µM and the GI50 [30] was 11.6 µM. For the same compound, the TGI [30] was 24.2 µM, the TGI [31] was 21.5 µM and the GI50 [32] was 7.42 µM. For the same compound, the TGI [32] was 24.5 µM, the GI50 [33] was 12.7 µM and the TGI [33] was 25.5 µM. It also gave a GI50 [34] of 12.3 µM, a TGI [34] of 29.1 µM and a GI50 [35] of 13 µM. It also gave a TGI [35] of 26 µM, a GI50 [36] of 12 µM and a TGI [36] of 24.5 µM. For the same compound, the GI50 [37] was 11 µM, the TGI [37] was 23.2 µM and the GI50 [38] was 10.7 µM. The TGI [38] was 22.9 µM, the GI50 [39] was 6.69 µM and the TGI [39] was 21.4 µM. It also gave a GI50 [40] of 7.29 µM, a TGI [40] of 22.6 µM and a TGI [41] greater than 45.4 µM. It also gave a GI50 [42] of 5.99 µM, a TGI [42] of 26.9 µM and a GI50 [43] of 10.2 µM. The TGI [43] was 23.8 µM, the GI50 [44] was 11.3 µM and the TGI [44] was 23.4 µM. The GI50 [45] was 6.66 µM, the TGI [45] was 21.8 µM and the GI50 [46] was 4.54 µM. The TGI [46] was 19.7 µM, the GI50 [47] was 11 µM and the TGI [47] was 25 µM. The TGI [48] was 20 µM, the GI50 [49] was 9.82 µM and the TGI [49] was 25.5 µM. For the same compound, the TGI [50] was 15.3 µM, the GI50 [51] was 13.1 µM and the TGI [51] was 25.8 µM. For the same compound, the TGI [52] was 8.1 µM, the TGI [53] was 17.9 µM and the TGI [54] was 4.45 µM. The TGI [55] was 17.4 µM, the GI50 [56] was 4.69 µM and the TGI [56] was 36.2 µM. For the same compound, the GI50 [57] was 3.98 µM, the TGI [57] was 7.97 µM and the GI50 [58] was 12.9 µM. It also gave a TGI [58] of 27.4 µM, a GI50 [59] of 10.2 µM and a TGI [59] of 23.1 µM.
Compound Cc1cnc(NC2CCOCC2)nc1-n1cnc(C(=O)N[C@H](CN)c2cc(F)cc(Cl)c2)c1 has a GI50 [1] of less than 0.01 µM, a TGI [1] of 0.0235 µM and a GI50 [2] of less than 0.01 µM. It also gave a TGI [2] of 0.0123 µM, a GI50 [3] of 1.47 µM and a TGI [3] of 3.19 µM. The GI50 [4] was 25.7 µM, the TGI [4] was greater than 100 µM and the GI50 [5] was 2.54 µM. For the same compound, the TGI [5] was 11 µM, the GI50 [6] was 1.05 µM and the TGI [6] was 16.8 µM. The GI50 [8] was 0.0215 µM, the TGI [8] was 23.9 µM and the GI50 [9] was 0.0919 µM. It also gave a TGI [9] of 3.7 µM, a GI50 [10] of 1.59 µM and a TGI [10] of 15 µM. For the same compound, the GI50 [11] was 2.05 µM, the TGI [11] was 12.4 µM and the GI50 [12] was less than 0.01 µM. It also gave a TGI [12] of 0.0408 µM, a GI50 [13] of 1.09 µM and a TGI [13] of 13.2 µM. For the same compound, the GI50 [14] was 1.26 µM, the TGI [14] was 2.54 µM and the GI50 [15] was 0.0985 µM. It also gave a TGI [15] of 13.6 µM, a GI50 [16] of less than 0.01 µM and a GI50 [18] of 3.68 µM. It also gave a TGI [18] of 21.5 µM, a GI50 [19] of 2.21 µM and a TGI [19] of 13 µM. For the same compound, the GI50 [20] was 0.0756 µM, the TGI [20] was 10.5 µM and the GI50 [21] was 15.6 µM. It also gave a TGI [21] of 30.3 µM, a GI50 [22] of 1.26 µM and a TGI [22] of 17.3 µM. For the same compound, the GI50 [23] was 0.198 µM, the TGI [23] was 2.52 µM and the GI50 [24] was 0.063 µM. For the same compound, the TGI [24] was 38.3 µM, the GI50 [25] was 2.78 µM and the TGI [25] was 20.8 µM. The GI50 [26] was 11.4 µM, the TGI [26] was 23.6 µM and the GI50 [27] was 0.509 µM. The TGI [27] was 21.1 µM, the GI50 [28] was 1.27 µM and the TGI [28] was 18 µM. It also gave a GI50 [29] of less than 0.01 µM, a TGI [29] of 0.0348 µM and a GI50 [30] of 0.0181 µM. For the same compound, the TGI [30] was 17.9 µM, the GI50 [31] was 0.0705 µM and the TGI [31] was 11.5 µM. The GI50 [34] was 0.524 µM, the TGI [34] was 14.4 µM and the GI50 [35] was 0.0225 µM. The TGI [35] was 10.5 µM, the GI50 [36] was 0.0374 µM and the TGI [36] was 21.5 µM. It also gave a GI50 [37] of 0.577 µM, a TGI [37] of 10.6 µM and a GI50 [38] of 0.807 µM. It also gave a TGI [38] of 15.4 µM, a GI50 [39] of 0.0524 µM and a TGI [39] of 16.9 µM. The GI50 [40] was 4.35 µM, the TGI [40] was 19.7 µM and the GI50 [41] was 0.0423 µM. The TGI [41] was 18.5 µM, the GI50 [42] was 2.2 µM and the TGI [42] was 16.3 µM. It also gave a GI50 [43] of 6.61 µM, a TGI [43] of 20.4 µM and a GI50 [46] of less than 0.01 µM. For the same compound, the TGI [46] was 0.0412 µM, the GI50 [47] was 0.0238 µM and the TGI [47] was 0.0814 µM. It also gave a GI50 [48] of 3.58 µM, a TGI [48] of 16.3 µM and a GI50 [49] of 21.1 µM. It also gave a TGI [49] of 48.5 µM, a GI50 [60] of 0.0173 µM and a TGI [60] of 4.58 µM. The GI50 [50] was 0.0403 µM, the TGI [50] was 7.92 µM and the GI50 [51] was less than 0.01 µM. It also gave a TGI [51] of 0.0258 µM, a GI50 [52] of 0.351 µM and a TGI [52] of 2.32 µM. It also gave a GI50 [53] of 6.1 µM, a TGI [53] of 20.2 µM and a GI50 [54] of 2.55 µM. The TGI [54] was 14.5 µM, the GI50 [55] was 0.405 µM and the TGI [55] was 12.1 µM. It also gave a GI50 [56] of 0.768 µM, a TGI [56] of 25.5 µM and a GI50 [57] of 0.0172 µM. For the same compound, the TGI [57] was 1.24 µM, the GI50 [58] was less than 0.01 µM and the TGI [58] was 46.9 µM. For the same compound, the GI50 [59] was 0.0295 µM and the TGI [59] was 17.5 µM.
